How the values were obtained:
[1] = tested on: prion-infected mice; conditions: cited from earlier work
[2] = tested on: mice; conditions: cited from earlier work
[3] = tested on: 13del mice; assay type: in vivo
[4] = tested on: wild-type mice; assay: ISRIB treatment of wild-type littermates; assay type: in vivo, mouse
Protocol: The potential of ISRIB to modify the chondrodysplasia phenotype was tested by treating 13del and wild-type littermates with ISRIB or vehicle twice daily by intraperitoneal injection from E13.5 (onset of expression of 13del transgene) to postnatal day 20 (p20) (FIG. 8A).
ISRIB (SML0843, Sigma) was dissolved in DMSO to make a 5 mg/ml stock and stored at 4-degree. Animals were intraperitoneally injected with ISRIB ((103, 104) (2.5 mg/kg, diluted in 0.9% saline) or vehicle (5% DMSO in saline) from E13.5 till p20 stage. The animals were collected at p10 and p20 stages for further analysis.

[5] = tested on: Mouse models of chondrodysplasia; conditions: cited from earlier work
[6] = tested on: congenital skeletal dysplasias; conditions: cited from earlier work
[7] = tested on: Fgf21; assay: Fgf21 expression after ER stress inducer tunicamycin in fibroblasts and ATDC5 cells; assay type: cell-based, mouse; conditions: NIH3T3 and MEF cells and ATDC5 cells, tunicamycin treatment
Protocol: FGF21 is a hormone with roles in glucose and lipid metabolism (74) and plays an survival role in the response to diverse stressful conditions, such as amino acid deprivation, mitochondrial stress and ER stress associated with diseases such as diabetes, cardiovascular disease (75-77).
Quantitative PCR was performed using SYBR-Green master mixture according to the manufacturer's instruction (Takara). Appropriate amounts of cDNA (or DNA) and primers were mixed with distilled water up to 10 μl and combined with equal amount of SYBR-Green master mixture. The reaction was run on the StepOne Real Time PCR system (Applied Biosystems, A&B). The Ct (cycle threshold) is defined as the cycle number required for the fluorescent signal to cross the threshold. The relative expression levels of target genes are calculated by normalizing to the expression level of GAPDH using delta-delta-Ct (Relative expression level=2^−(Cttarget−CtGapdh)). Melting curve was also measured to detect the specificity of the primers.

[8] = 13del mice, after 20-days ISRIB treatment

Compound: Cn1cc(-c2ccc3c(c2)CCN3C(=O)Cc2cccc(C(F)(F)F)c2)c2c(N)ncnc21 [GSK2606414]
- effect of restoring protein synthesis through PERK inhibition [1]: neuroprotective
- side effects [1]: weight loss and pancreatic toxicity

Compound: O=C(COc1ccc(Cl)cc1)N[C@H]1CC[C@H](NC(=O)COc2ccc(Cl)cc2)CC1 [ISRIB]
- neurotrophic effects [2]: significant neurotrophic effects
- overall toxicity [2]: no overall toxicity
- pharmacokinetic properties [2]: acceptable
- amount of ATF4 and CHOP protein ([3]; 13del HZ, p10): reduced
- transcripts and protein level of downstream targets (ATF3, ERO1l and FGF21) ([3]; 13del HZ, p10): down-regulation
- Atf3+ cells in L3-L6 NP, growth plates or endplates ([3]; 13del lumbar IVD, after ISRIB treatment): no Atf3^+ cell can be detected
- ectopic NP expression of Opn ([3]; 13del lumbar NP, 20-days treatment): greatly reduced
- number of reprogrammed chondrocytes in the growth plates and endplates ([3]; 13del mice): reduced
- chondrocyte-like cells present in iAF [3, 8]: fewer
- regularity of inner annulus fibrosus (iAF) [3, 8]: more regular
- Bip transcripts in HZ ([3]; 13del mice, p10, in situ hybridization): not affected
- HZ expansion in tail intervertebral disc growth plates ([3]; 13del mice, p10 and p20): reduced
- HZ expansion in the limb growth plates ([3]; 13del mice, p10 and p20): greatly reduced
- number of SOX9+, Col2a1+ and Ppr+ cells in the HZ ([3]; 13del mice, p10 and p20): diminished
- number of Sox9+ and Col2a1+ premature cells in tail intervertebral disc growth plates ([3]; 13del mice, p10 and p20): decreased
- IVD abnormalities in 13del lumbar spine (endplate expansion, iAF structure) ([3]; ISRIB 2.5 mg/kg): eased
- overall adverse effect in treated mice ([3]; ISRIB 2.5 mg/kg i.p., E13.5 to p20): without any obvious adverse effect
- apoptosis in 13del HC ([3]; TUNEL): did not induce apoptosis
- dwarfism of 13del mice (body length) ([3]; new born to juvenile stages, ISRIB 2.5 mg/kg i.p. twice daily, E13.5 to p20): markedly reduced
- skeletal deformities, radiographic analyses (length of tibia/femur and spine, genu varum, pelvic bone orientation, coxa vara) ([3]; p20, ISRIB 2.5 mg/kg i.p.): ameliorated
- effect on the limb growth plates in wild-type mice ([4]; histology, p10): no observable effect
- adverse effects on weight gain or body growth ([4]; wild-type mice, ISRIB 2.5 mg/kg i.p. twice daily, E13.5 to p20): no adverse effects

Compound: O=C(O)CCCc1ccccc1 [phenylbutyric acid]
- efficacy in chondrodysplasia [5]: ineffective

Compound: Growth hormone: Growth hormone (GH) therapy used to treat dwarfism
- effect in cases with severe spinal deformities ([6]; in vivo): worsened kyphosis and lordosis
- efficacy for height gain ([6]; most congenital skeletal dysplasias): ineffective

Compound: tunicamycin
- increase of Fgf21 expression [7]: > 100 fold
